In patent US20250230193A1, “CYCLIC COMPOUND HAVING SELECTIVE KRAS INHIBITORY EFFECT ON HRAS AND NRAS” (CHUGAI SEIYAKU KABUSHIKI KAISHA, priority 2022, published 2025):

Tests used:
[1] = biological target: GDP-bound HRAS wild-type protein (Homo sapiens, UniProt P01112); assay: Binding to HRAS by surface plasmon resonance (SPR), Single Cycle Kinetics; details: SPR, GDP-bound HRAS wild-type vs GDP-bound KRAS wild-type
[2] = biological target: GDP-bound NRAS wild-type protein (Homo sapiens, UniProt P01111); assay: Binding to NRAS by surface plasmon resonance (SPR), Single Cycle Kinetics; details: SPR, GDP-bound NRAS wild-type vs GDP-bound KRAS wild-type
GDP-bound NRAS wild-type protein, sequence (P01111 whole entry): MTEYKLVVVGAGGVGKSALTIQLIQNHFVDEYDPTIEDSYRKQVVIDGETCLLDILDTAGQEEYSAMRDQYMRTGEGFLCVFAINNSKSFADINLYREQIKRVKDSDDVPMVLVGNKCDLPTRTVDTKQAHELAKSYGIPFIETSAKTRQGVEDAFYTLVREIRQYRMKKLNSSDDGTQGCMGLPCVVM

GDP-bound HRAS wild-type protein, sequence (P01112 whole entry): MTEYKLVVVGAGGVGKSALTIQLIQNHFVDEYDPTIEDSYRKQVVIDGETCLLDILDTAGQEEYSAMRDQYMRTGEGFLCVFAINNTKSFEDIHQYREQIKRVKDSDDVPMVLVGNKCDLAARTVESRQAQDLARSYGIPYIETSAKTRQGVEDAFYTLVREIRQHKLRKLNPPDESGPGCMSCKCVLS

Row | SMILES | HRAS/KRAS (ratio of KD value with respect to HRAS to KD value with respect to KRAS) [1] | NRAS/KRAS (ratio of KD value with respect to NRAS to KD value with respect to KRAS) [2]
1 | CCO[C@@H]1C[C@H]2C(=O)NC3(CC(C)(C)C3)C(=O)N(C)[C@@H](C(CC)CC)C(=O)N(C)[C@H](C(=O)N(C)C)CC(=O)N(C)[C@@H](CC)C(=O)N[C@@H]([C@@H](C)CC)C(=O)N(C)CC(=O)N(C)[C@H]3C/C=C\CCN(C3=O)[C@@H](Cc3ccc(C(F)(F)F)cc3)C(=O)N(C)CC(=O)N[C@@H](CCc3ccc(C(F)(F)F)c(OC)c3)C(=O)N2C1 [PP2066] | B (a compound having 3 or more and less than 10 is denoted as B) | A (a compound having 10 or more and less than 20 is denoted as A)
2 | CCCN(C)C(=O)[C@@H]1CC(=O)N(C)[C@@H](C(C)C)C(=O)N[C@@H]([C@@H](C)CC)C(=O)N(C)CC(=O)N(C)[C@H]2C/C=C\CCN(C2=O)[C@@H](Cc2ccc(C(F)(F)F)cc2)C(=O)N(C)CC(=O)N[C@@H](CCc2ccc(C(F)(F)F)c(OC)c2)C(=O)N2C[C@@H](C)C[C@H]2C(=O)NC2(CCC2)C(=O)N(C)[C@@H](C2CCCC2)C(=O)N1C [PP2067] | A (a compound having 10 or more and less than 20 is denoted as A) | AA (a compound having 20 or more is denoted as AA)
3 | CCC[C@H]1C(=O)N[C@@H]([C@@H](C)CC)C(=O)N(C)CC(=O)N(C)[C@H]2C/C=C\CCN(C2=O)[C@@H](Cc2ccc(C)cc2)C(=O)N(C)CC(=O)N[C@@H](CCc2ccc(C(F)(F)F)c(OC)c2)C(=O)N2C[C@H](OCC)C[C@H]2C(=O)NC2(CC(C)(C)C2)C(=O)N(C)[C@@H](C(CC)CC)C(=O)N(C)[C@H](C(=O)N(C)C)CC(=O)N1C [PP2068] | B (a compound having 3 or more and less than 10 is denoted as B) | A (a compound having 10 or more and less than 20 is denoted as A)
4 | CC[C@H](C)[C@@H]1NC(=O)[C@H](C2CC2)N(C)C(=O)C[C@@H](C(=O)N(C)CC)N(C)C(=O)[C@H](C2CCCC2)N(C)C(=O)C2(CCC2)NC(=O)[C@@H]2C[C@H](C)CN2C(=O)[C@H](CCc2ccc(C(F)(F)F)c(OC)c2)NC(=O)CN(C)C(=O)[C@H](Cc2ccc(C(F)(F)F)cc2)N2CC/C=C\C[C@@H](C2=O)N(C)C(=O)CN(C)C1=O [PP2069] | A (a compound having 10 or more and less than 20 is denoted as A) | AA (a compound having 20 or more is denoted as AA)
5 | CCCN(C)C(=O)[C@@H]1CC(=O)N(C)[C@@H](C2CC2)C(=O)N[C@@H]([C@@H](C)CC)C(=O)N(C)CC(=O)N(C)[C@H]2C/C=C\CCN(C2=O)[C@@H](Cc2ccc(C(F)(F)F)cc2)C(=O)N(C)CC(=O)N[C@@H](CCc2ccc(C(F)(F)F)c(OC)c2)C(=O)N2C[C@@H](C)C[C@H]2C(=O)NC2(CCC2)C(=O)N(C)[C@@H](C2CCCC2)C(=O)N1C [PP2070] | A (a compound having 10 or more and less than 20 is denoted as A) | A (a compound having 10 or more and less than 20 is denoted as A)
6 | CC[C@H](C)[C@@H]1NC(=O)[C@H](C2CCC2)N(C)C(=O)C[C@@H](C(=O)N(C)CC)N(C)C(=O)[C@H](C2CCCC2)N(C)C(=O)C2(CCC2)NC(=O)[C@@H]2C[C@H](C)CN2C(=O)[C@H](CCc2ccc(C(F)(F)F)c(OC)c2)NC(=O)CN(C)C(=O)[C@H](Cc2ccc(C(F)(F)F)cc2)N2CC/C=C\C[C@@H](C2=O)N(C)C(=O)CN(C)C1=O [PP2071] | A (a compound having 10 or more and less than 20 is denoted as A) | A (a compound having 10 or more and less than 20 is denoted as A)
7 | CCCN(C)C(=O)[C@@H]1CC(=O)N(C)[C@@H](C2CCC2)C(=O)N[C@@H]([C@@H](C)CC)C(=O)N(C)CC(=O)N(C)[C@H]2C/C=C\CCN(C2=O)[C@@H](Cc2ccc(C(F)(F)F)cc2)C(=O)N(C)CC(=O)N[C@@H](CCc2ccc(C(F)(F)F)c(OC)c2)C(=O)N2C[C@@H](C)C[C@H]2C(=O)NC2(CCC2)C(=O)N(C)[C@@H](C2CCCC2)C(=O)N1C [PP2072] | A (a compound having 10 or more and less than 20 is denoted as A) | A (a compound having 10 or more and less than 20 is denoted as A)
8 | C#CC[C@H]1C(=O)N[C@@H]([C@@H](C)CC)C(=O)N(C)CC(=O)N(C)[C@H]2C/C=C\CCN(C2=O)[C@@H](Cc2ccc(C(F)(F)F)cc2)C(=O)N(C)CC(=O)N[C@@H](CCc2cc(F)c(C(F)(F)F)c(F)c2)C(=O)N2C[C@H](OCC)C[C@H]2C(=O)NC2(CC(C)(C)C2)C(=O)N(C)[C@@H](C2CCCC2)C(=O)N(C)[C@H](C(=O)N(C)CC)CC(=O)N1C [PP2073] | A (a compound having 10 or more and less than 20 is denoted as A) | A (a compound having 10 or more and less than 20 is denoted as A)
9 | C#CC[C@H]1C(=O)N[C@@H]([C@@H](C)CC)C(=O)N(C)CC(=O)N(C)[C@H]2C/C=C\CCN(C2=O)[C@@H](Cc2ccc(C(F)(F)F)cc2)C(=O)N(C)CC(=O)N[C@@H](CCc2cc(F)c(C(F)(F)F)c(F)c2)C(=O)N2C[C@H](OCC)C[C@H]2C(=O)NC2(CC(C)(C)C2)C(=O)N(C)[C@@H](C2CCCC2)C(=O)N(C)[C@H](C(=O)N(C)CCC)CC(=O)N1C [PP2074] | A (a compound having 10 or more and less than 20 is denoted as A) | A (a compound having 10 or more and less than 20 is denoted as A)
10 | C#CC[C@H]1C(=O)N[C@@H]([C@@H](C)CC)C(=O)N(C)CC(=O)N(C)[C@H]2C/C=C\CCN(C2=O)[C@@H](Cc2ccc(C(F)(F)F)cc2)C(=O)N(C)CC(=O)N[C@@H](CCc2cc(F)c(C(F)(F)F)c(F)c2)C(=O)N2C[C@@H](C)C[C@H]2C(=O)NC2(CC(C)(C)C2)C(=O)N(C)[C@@H](C2CCCC2)C(=O)N(C)[C@H](C(=O)N(C)CC)CC(=O)N1C [PP2075] | A (a compound having 10 or more and less than 20 is denoted as A) | A (a compound having 10 or more and less than 20 is denoted as A)
11 | C#CC[C@H]1C(=O)N[C@@H]([C@@H](C)CC)C(=O)N(C)CC(=O)N(C)[C@H]2C/C=C\CCN(C2=O)[C@@H](Cc2ccc(C(F)(F)F)cc2)C(=O)N(C)CC(=O)N[C@@H](CCc2cc(F)c(C(F)(F)F)c(F)c2)C(=O)N2C[C@@H](C)C[C@H]2C(=O)NC2(CC(C)(C)C2)C(=O)N(C)[C@@H](C2CCCC2)C(=O)N(C)[C@H](C(=O)N(C)CCC)CC(=O)N1C [PP2076] | A (a compound having 10 or more and less than 20 is denoted as A) | A (a compound having 10 or more and less than 20 is denoted as A)
12 | C#CC[C@H]1C(=O)N[C@@H]([C@@H](C)CC)C(=O)N(C)CC(=O)N(C)[C@H]2C/C=C\CCN(C2=O)[C@@H](Cc2ccc(C(F)(F)F)cc2)C(=O)N(C)CC(=O)N[C@@H](CCc2cc(F)c(C(F)(F)F)c(F)c2)C(=O)N2C[C@@H](C)C[C@H]2C(=O)NC2(CCC2)C(=O)N(C)[C@@H](C2CCCC2)C(=O)N(C)[C@H](C(=O)N(C)CCC)CC(=O)N1C [PP2077] | A (a compound having 10 or more and less than 20 is denoted as A) | A (a compound having 10 or more and less than 20 is denoted as A)
13 | CC[C@H](C)[C@@H]1NC(=O)[C@H](C(C)C)N(C)C(=O)C[C@@H](C(=O)N(C)CC)N(C)C(=O)[C@H](C2CCCC2)N(C)C(=O)C2(CCC2)NC(=O)[C@@H]2C[C@H](C)CN2C(=O)[C@H](CCc2cc(F)c(C(F)(F)F)c(F)c2)NC(=O)CN(C)C(=O)[C@H](Cc2ccc(C(F)(F)F)cc2)N2CC/C=C\C[C@@H](C2=O)N(C)C(=O)CN(C)C1=O [PP2078] | A (a compound having 10 or more and less than 20 is denoted as A) | AA (a compound having 20 or more is denoted as AA)
14 | CCCN(C)C(=O)[C@@H]1CC(=O)N(C)[C@@H](C(C)C)C(=O)N[C@@H]([C@@H](C)CC)C(=O)N(C)CC(=O)N(C)[C@H]2C/C=C\CCN(C2=O)[C@@H](Cc2ccc(C(F)(F)F)cc2)C(=O)N(C)CC(=O)N[C@@H](CCc2cc(F)c(C(F)(F)F)c(F)c2)C(=O)N2C[C@@H](C)C[C@H]2C(=O)NC2(CCC2)C(=O)N(C)[C@@H](C2CCCC2)C(=O)N1C [PP2079] | A (a compound having 10 or more and less than 20 is denoted as A) | A (a compound having 10 or more and less than 20 is denoted as A)
15 | CC[C@H](C)[C@@H]1NC(=O)[C@H](C2CC2)N(C)C(=O)C[C@@H](C(=O)N(C)CC)N(C)C(=O)[C@H](C2CCCC2)N(C)C(=O)C2(CCC2)NC(=O)[C@@H]2C[C@H](C)CN2C(=O)[C@H](CCc2cc(F)c(C(F)(F)F)c(F)c2)NC(=O)CN(C)C(=O)[C@H](Cc2ccc(C(F)(F)F)cc2)N2CC/C=C\C[C@@H](C2=O)N(C)C(=O)CN(C)C1=O [PP2080] | A (a compound having 10 or more and less than 20 is denoted as A) | A (a compound having 10 or more and less than 20 is denoted as A)
16 | CCCN(C)C(=O)[C@@H]1CC(=O)N(C)[C@@H](C2CC2)C(=O)N[C@@H]([C@@H](C)CC)C(=O)N(C)CC(=O)N(C)[C@H]2C/C=C\CCN(C2=O)[C@@H](Cc2ccc(C(F)(F)F)cc2)C(=O)N(C)CC(=O)N[C@@H](CCc2cc(F)c(C(F)(F)F)c(F)c2)C(=O)N2C[C@@H](C)C[C@H]2C(=O)NC2(CCC2)C(=O)N(C)[C@@H](C2CCCC2)C(=O)N1C [PP2081] | A (a compound having 10 or more and less than 20 is denoted as A) | A (a compound having 10 or more and less than 20 is denoted as A)
